In paper PMC11187217, “Anti-adhesive, anti-biofilm and fungicidal action of newly synthesized gemini quaternary ammonium salts” (Scientific Reports, 2024):
Like-named read-outs stand apart in the source and are kept apart here. Marks after values point to notes of the source that are not given here.

Tests used:
[1] = Critical micelle concentration (CMC), conductometric method; assay type: physicochemical; settings: double distilled water, 25 °C
Text: Alkanoyl chlorides (dodecanoyl, tetradecanoyl and hexadecanoyl) were obtained from Sigma-Aldrich. Anhydrous lactic acid (99%, crystalline) was purchased from Alfal. All solvents were obtained from Avantor Performance Materials or Stanlab and used as received. Methanol (solvent) for counterions exchange reactions was analytical grade (Avantor Performance Materials) and was additionally dried over CaH2 prior synthesis. Deuterated solvents were from Sigma-Aldrich. CMC values of surfactants were measured conductometrically in double distilled water at 25 °C.
Elemental analysis was conducted utilizing Vario EL cube (Elementar, Germany) calibrated on acetanilide. Mass spectra were gain by electrospray ionization mass spectroscopy (ESI–MS) (micrOTOF-Q instrument; Bruker Daltonics, Germany). The ESI–MS aparatus was operated in the positive ion mode (calibrated with the Tunemix™ mixture; Bruker Daltonics; Germany), followed by spectra analysis by the DataAnalysis 3.4 software (Bruker Daltonics, Germany)—resolution of at least 5 ppm. Proton NMR and ^13C NMR measurements were performed on a Bruker AMX-500 spectrometer, utilizing CDCl3 or DMSO-d6 as a solvent. Proton and ^13C chemical shifts (given in ppm) were calibrated to TMS (δ = 0 ppm) as an internal reference. Krafft points were measured according to procedures described in our previous studies Lamch et al.,[82]. Values of CMC for all surfactants were measured utilizing the conductometric method for the compounds’ solutions in milliQ water in the same manner as described in Kula et al.. For all spectra: ^1H NMR, ^13C NMR and ESI–MS as well as appropriate comments see Electronic Supplementary Material.

Candida albicans 595/20 = assay: MIC/MFC, microdilution method (modified CLSI M27); assay type: cell-based; settings: C. albicans 595/20 (clinical isolate), 28 °C; for MIC / MFC: Candida albicans; for MIC: 595/20, 24 h, read-out: Minimum inhibitory concentration (MIC); for MIC / Minimum inhibitory concentration (MIC): 90% growth inhibition, YPG; for MFC / Minimum fungicidal concentration (MFC*): no growth on solid YPG; for MFC / Minimum inhibitory concentration (MIC) / Minimum fungicidal concentration (MFC*): 24 h; for MFC: read-out: Minimum fungicidal concentration (MFC*)
Description: (§1) Minimum inhibitory concentration (MIC) and minimum fungicidal concentration (MFC) values were determined based on the modified CLSI M27 protocol. The study was performed using the microdilution method on sterile 96-well titration plates. The S. cerevisiae Σ1278b ATCC 42800, S. cerevisiae BY4741 ATCC 201388, C. albicans ATCC 10231, C. albicans 595/20 and R. mucilaginosa ATCC 4056 were incubated for 18 h at 28 °C (without shaking), then centrifuged (1000 rcf, 5 min), and the obtained pellet was suspended in fresh YPG medium and optical density (OD) = 0.25–0.3 was determined at a wavelength (λ) of 590 nm. Next, 10 μl of selected compounds at appropriate final concentrations (5–1280 μM) were spotted into the wells of the titration plate. Then, 80 μl of YPG medium and 10 μl of culture with a fixed OD were added. All tests were performed in triplicate. The plate was incubated at 28 °C for 24 h. The YPG medium was a negative control, while the prepared culture not treated with compounds was a positive control. […] The minimum inhibitory concentration was determined at 90% growth inhibition.
(§2) In order to determine the MFC of selected gemini surfactants, 10 μl of culture was transferred to solid YPG medium from the wells of the titration plate in which MIC was observed and from wells with the compound with higher concentrations. The spotted suspensions were incubated at 28 °C for 24 h. After incubation, inhibition of the growth of microorganisms was observed.

[2] = test system: Saccharomyces cerevisiae BY4741 ATCC 201388; assay: MIC/MFC, microdilution method (modified CLSI M27); assay type: cell-based; settings: for MIC: YPG, read-out: Minimum inhibitory concentration (MIC); for MIC / Minimum fungicidal concentration (MFC*): 28 °C; for MFC: read-out: Minimum fungicidal concentration (MFC*), S. cerevisiae BY4741, no growth on solid YPG, 28 °C; for Minimum fungicidal concentration (MFC*): no growth on solid YPG
Description: as §1, §2

C. albicans ATCC 10231 = assay: Filamentation of Candida albicans (DIC microscopy); assay type: cell-based; settings: 24 h incubation, ½ MIC, 37 °C
Description: The culture of C. albicans ATCC 10231 was incubated in YPG medium at 28 °C for 18 h. Then the culture was centrifuged (1000 rcf, 5 min), and the resulting pellet was suspended in fresh YPG medium to obtain a culture with OD = 0.6. […] The formation of filaments was observed using a differential interference contrast microscope (Olympus BX50 DIC Microscope) after 12 and 24 h of exposure to selected surfactants on C. albicans cells. The control was a culture not exposed to gemini QAS. The experiment was performed based on a modification of the protocol of Obłąk et al. ^46.

[3] = test system: C. albicans ATCC 10231 biofilm; assay: Biofilm eradication (crystal violet); assay type: cell-based, Candida albicans; settings: 24 h biofilm, 4 h exposure, concentration not given (tested 20–1280 µM)
Description: The culture of C. albicans ATCC 10231 was incubated with shaking for 18 h at 37 °C, centrifuged (1000 rcf, 5 min), and the pellet was suspended in PBS (pH 7.4) until OD = 0.8. 100 µl of the obtained culture was spotted into the wells of a 96-well plate and it was incubated at 37 °C for 24 h. After incubation, the culture was removed from the wells and rinsed with sterile distilled water. Then, 100 µl of the tested gemini QAS at concentrations of 20–1280 µM were added and incubated for 4 h at 37 °C. After this time, the compounds were removed, and the plates were rinsed with sterile distilled water and placed in an oven (60 °C, 20 min) to strengthen the formed biofilm. Then 100 µl of crystal violet (0.1%) was added and stained for 5 min. The plates were rinsed with sterile distilled water until there were no traces of purple in the rinse water, and 150 µl of washing mixture (1% SDS, 50 mmol HCl, 100% isopropanol) was added. Absorbance was measured at λ = 590 nm (BioTek 800 TS Absorbance Reader). The negative control was the medium, while the positive control was the culture wells to which the tested gemini QAS had not been added. The experiment was carried out based on a modification of the method of Obłąk et al.. The tested samples were performed in 3 repetitions.

[4] = test system: S. cerevisiae Σ1278b ATCC 42800; assay: Cytotoxicity, alamarBlue (resazurin) assay on yeast cells; assay type: cell-based, Saccharomyces cerevisiae; settings: ¼ and ½ MIC
Description: To determine the cytotoxicity of the tested gemini QAS on yeast cells, an experiment was performed using the alamarBlue colorimetric assay to determine the metabolic activity of cells, using the modified alamarBlue Cell Viability Assay Reagent method. Enzymes of the electron transport system reduce the blue resazurin solution to resorufin, which is fluorescent pink.
The yeast culture S. cerevisiae Σ1278b was incubated at 28 °C for 16 h with shaking (100 rpm), centrifuged (1000 rcf, 5 min) and the optical density was obtained, OD = 1.0, λ = 590 nm. On a 96-well titration plate we spotted 160 μl of YPG medium, 20 μl of yeast culture and the tested gemini QAS at final concentrations of ½ and ¼ MIC. The negative control was YPG medium with resazurin solution, and the positive control was resazurin solution with yeast culture. The plates were incubated at 28 °C for 12 h. Then, 20 μl of resazurin solution (alamarBlue) was added to the wells and the plate was incubated for 4 h in the dark. After incubation, the absorbance was measured at λ = 570 nm and λ = 600 nm and the color change of the wells from blue to pink was observed. The experiment was performed in 3 repetitions.

[5] = Saccharomyces cerevisiae, ATCC201388, 24 h, S. cerevisiae BY4741, 90% growth inhibition
[6] = Saccharomyces cerevisiae, ATCC201388, 24 h
[7] = S. cerevisiae BY4741, 90% growth inhibition, 24 h

| SMILES | CMC [1] | MIC (Candida albicans 595/20) [µM] | MFC (Candida albicans 595/20) [µM] | MIC [2, 5] [µM] | MFC [2, 6] [µM] | Effect on production of filaments by C. albicans (C. albicans ATCC 10231; listed as dibromides with 16-carbon alkyl chains) | Destruction (eradication) of formed C. albicans biofilm [3] | Cytotoxic potential towards mitochondrial metabolism of S. cerevisiae Σ1278b cells [4] | MIC [2, 7] [µM] | Minimum fungicidal concentration (MFC*) ([2]; S. cerevisiae BY4741, 24 h) [µM] | Effect on production of filaments by C. albicans (C. albicans ATCC 10231; listed as Dibromides with 12-carbon hydrophobic chains) | Effect on production of filaments by C. albicans (C. albicans ATCC 10231) | Minimum inhibitory concentration (MIC) (Candida albicans 595/20) | Minimum fungicidal concentration (MFC*) (Candida albicans 595/20) |
| --- | --- | --- | --- | --- | --- | --- | --- | --- | --- | --- | --- | --- | --- | --- |
| CCCCCCCCCCCCCCCC(=O)N(CCCN(CCC[N+](C)(C)C)C(=O)CCCCCCCCCCCCCCC)CCC[N+](C)(C)C [2xC16BrG3] | 4.6*10^–7 mol/dm^3 | > 1280 | > 1280 | 320 | > 1280 | largely prevented the formation of filaments | approximately 80% | did not have cytotoxic potential | – | – | – | – | – | – |
| CCCCCCCCCCCC(=O)N(CCCN(CCC[N+](C)(C)C)C(=O)CCCCCCCCCCC)CCC[N+](C)(C)C [2xC12BrG3] | 6.4*10^–5 mol/dm^3 | 1280 | > 1280 | – | – | – | approximately 80% | did not have cytotoxic potential | 20 | 320 | completely inhibits filament formation and cell growth | – | – | – |
| CCCCCCCCCCCCCC(=O)N(CCCN(CCC[N+](C)(C)C)C(=O)CCCCCCCCCCCCC)CCC[N+](C)(C)C [2xC14BrG3] | 5.4*10^–6 mol/dm^3 | 640 | > 1280 | 160 | 1280 | – | approximately 80% | did not have cytotoxic potential | – | – | – | had little effect on the formation of filaments | – | – |
| CCCCCCCCCCCCCCCC(=O)N(CCCN(CCC[N+](C)(C)C)C(=O)CCCCCCCCCCCCCCC)CCC[N+](C)(C)C [2xC16LaG3] | 3.7*10^–7 mol/dm^3 | – | – | – | – | – | approximately 20% | did not have cytotoxic potential | 640 | > 1280 | – | strongly prevented the formation of filaments | > 1280 > 1280* µM | > 1280 > 1280* µM |
| CCCCCCCCCCCCCCCC(=O)N(CCCN(CCC[N+](C)(C)C)C(=O)CCCCCCCCCCCCCCC)CCC[N+](C)(C)C [2xC16MeCO3G3, dimethyl{{3-[N-(3-{N-[3-(dimethylammonium)propyl]hexadecylamido}propyl}hexadecylamido}propyl}}ammonium dimethylcarbonate] | 1.6*10^–6 mol/dm^3 | – | – | – | – | – | approximately 80% | did not have cytotoxic potential | 640 | 1280 | – | significantly reduced their number | > 1280 > 1280* µM | > 1280 > 1280* µM |
| CCCCCCCCCCCC(=O)N(CCCN(CCC[N+](C)(C)C)C(=O)CCCCCCCCCCC)CCC[N+](C)(C)C [2xC12MeCO3G3, dimethyl{{3-[N-(3-{N-[3-(dimethylammonium)propyl]dodecylamido}propyl}dodecylamido}propyl}}ammonium dimethylcarbonate] | 1.8*10^–4 mol/dm^3 | – | – | – | – | – | approximately 40% | did not have cytotoxic potential | 160 | 1280 | – | almost completely inhibited the production of filaments | > 1280 > 1280* µM | > 1280 > 1280* µM |
